The source of these data is ChEMBL document CHEMBL1121576, “Congeners of the alpha conformer of dopamine derived from octahydrobenz[h]isoquinoline” (1980).

Holding throughout (type): functional
The species entered for assay [1] is Felis catus. The experiment in a line: Tested for inhibition of postganglionic cardioaccelerator nerve in the cat. The settings on record: for ED50: Felis catus, read-out: ID50 (the source's name).
The subject of assay [2] is Felis catus. Nature of the assay: Percent reduction in blood pressure after iv administration of 1 umol/kg of compound in anesthetized cat.
In assay [3] the test system is Felis catus. The experiment in a line: Percent reduction in heart rate after iv administration of 1 umol/kg of compound in anesthetized cats.
For assay [4], the species on record is Felis catus. Nature of the assay: Tested for inhibitory activity against postganglionic cardioaccelerator nerve relative to apomorphine.

Molecules are shown by their SMILES.

Regarding `Br.CCN1CC[C@H]2CCc3cc(O)c(O)cc3[C@H]2C1`, the ED50 in assay [1] turned out to be 0.81 µmol/kg. The Reduction in assay [2] amounted to 18.5%; in assay [3] it was 4.3 beats min-1. The molecule also had a Relative activity in assay [4] of 0.025.

With `Br.CCCN1CC[C@H]2CCc3cc(O)c(O)cc3[C@@H]2C1` (relative stereo), in assay [1], the ED50 turned out to be 0.8 µmol/kg. Moreover, the Reduction was determined as 13.3% in assay [2] and 3 beats min-1 in assay [3]. In assay [4], the Relative activity was 0.026.

For `Br.CCCN1CC[C@H]2CCc3cc(O)c(O)cc3[C@H]2C1` (relative stereo), the ED50 in assay [1] was 0.9 µmol/kg. Moreover, the Reduction in assay [2] came to 31.7%; in assay [3], 22.6 beats min-1. Besides, in assay [4], the Relative activity was 0.02.

In assay [1], `Br.Oc1cc2c(cc1O)C1CNCCC1CC2` (stereo in doubt; 21) displayed an ID50 of 0.31 µM/kg. Also, the Reduction in assay [2] is 27.9%; in assay [3], 13.6 beats min-1. Moreover, in assay [4], the Relative activity came to 0.073.

Consider `Br.CN1CCC2CCc3cc(O)c(O)cc3C2C1` (trans isomer), for which the ED50 in assay [1] is 0.52 µmol/kg. The results for the Reduction in assay [2] and in assay [3] were 14.6% and 3.2 beats min-1, respectively. This molecule also returned a Relative activity in assay [4] of 0.038.

In assay [1], `Br.Oc1cc2c(cc1O)C1CNCCC1CC2` (trans isomer) registered an ID50 of 0.8 µM/kg. Further, the results for the Reduction in assay [2] and in assay [3] were 21.9% and 49 beats min-1, respectively. In assay [4], this molecule returned a Relative activity of 0.27.

As to `CN1CCc2cccc3c2[C@H]1Cc1ccc(O)c(O)c1-3` [APOMORPHINE], in assay [1], the ED50 turned out to be 0.024 µmol/kg. In addition, in assay [4], the Relative activity worked out at 1.
